In this experiment the test system is IL-1β production in PMA-differentiated THP-1 cells. Kind of experiment: IL-1β production in PMA-differentiated THP-1 cells stimulated with gramicidin (hTHP-1 assay, 2% fetal bovine serum; Procedures 1-3). The format is cell-based, human. As to conditions: hTHP-1 assay containing 2% fetal bovine serum, gramicidin stimulation, IL-1β readout, read-out: hTHP-1 IC50. The essentials: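 IL-1β released into supernatants was read by HTRF after 2 h gramicidin (5 μM) challenge. Before challenge, compounds (3-fold dilutions, top 100 μM, 0.37% DMSO) were given 1 h on THP-1 cells differentiated with PMA (20 ng/ml, 16-18 h) and held in 2% FBS medium.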

Here are results for 26 compounds from patent US20230051589A1, “COMPOUNDS AND COMPOSITIONS FOR TREATING CONDITIONS ASSOCIATED WITH NLRP ACTIVITY” (Novartis AG, priority 2018, published 2023).

Like-named read-outs stand apart in the source and are kept apart here.

As for `NS(=O)(=NC(=O)Nc1c2c(cc3c1CCC3)CCC2)c1sc(CNC2CCC2)cc1F` (single isomer, unassigned) [Example 796, (S) or (R)-5-((cyclobutylamino)methyl)-3-fluoro-N′-((1,2,3,5,6,7-hexahydro-s-indacen-4-yl)carbamoyl)thiophene-2-sulfonimidamide], the IC50 (commonly the concentration at which inhibition is half-maximal) (Table B3) lay within 5 to 30 µM.

Turning to `CN(Cc1ccc(S(N)(=O)=NC(=O)Nc2c3c(cc4c2CC4)CCC3)c(F)c1)C1CCC1` (single isomer, unassigned) [Example 797, (R) or (S)-4-((cyclobutyl(methyl)amino)methyl)-2-fluoro-N′-((2,4,5,6-tetrahydro-1H-cyclobuta[f]inden-3-yl)carbamoyl)benzenesulfonimidamide], the IC50 (Table B3) is 0.2 to 1 µM.

Turning to `CN(Cc1ccc(S(N)(=O)=NC(=O)Nc2c3c(cc4c2CC4)CCC3)c(F)c1)C1CCC1` (single isomer, unassigned) [Example 798, (S) or (R)-4-((cyclobutyl(methyl)amino)methyl)-2-fluoro-N′-((2,4,5,6-tetrahydro-1H-cyclobuta[f]inden-3-yl)carbamoyl)benzenesulfonimidamide], the IC50 (Table B3) was greater than 30 µM.

For `NS(=O)(=NC(=O)Nc1c2c(cc3c1CCC3)CCC2)c1ccc(-c2ccccc2)s1` (single isomer, unassigned) [Example 799, (R) or (S)-N′-((1,2,3,5,6,7-hexahydro-s-indacen-4-yl)carbamoyl)-5-phenylthiophene-2-sulfonimidamide], the IC50 (Homo sapiens, THP-1, Table B3) was greater than 30 µM.

Consider `NS(=O)(=NC(=O)Nc1c2c(cc3c1CCC3)CCC2)c1ccc(-c2ccccc2)s1` (single isomer, unassigned) [Example 800, (S) or (R)-N′-((1,2,3,5,6,7-hexahydro-s-indacen-4-yl)carbamoyl)-5-phenylthiophene-2-sulfonimidamide], for which the IC50 (Table B3) is greater than 30 µM.

Take `CC(C)(O)c1sc(S(N)(=O)=NC(=O)Nc2c3c(cc4c2CCC4)CCC3)cc1-c1ccccc1` (single isomer, unassigned) [Example 801, (S) or (R)-N′-((1,2,3,5,6,7-hexahydro-s-indacen-4-yl)carbamoyl)-5-(2-hydroxypropan-2-yl)-4-phenylthiophene-2-sulfonimidamide]: the IC50 (Table B3) fell in the range of 5 to 30 µM.

Turning to `CC(C)(O)c1sc(S(N)(=O)=NC(=O)Nc2c3c(cc4c2CCC4)CCC3)cc1-c1ccccc1` (single isomer, unassigned) [Example 802, (R) or (S)-N′-((1,2,3,5,6,7-hexahydro-s-indacen-4-yl)carbamoyl)-5-(2-hydroxypropan-2-yl)-4-phenylthiophene-2-sulfonimidamide], the IC50 (Table B3) fell in the range of 0.04 to 0.2 µM.

Take `CN(C)Cc1ccc(S(N)(=O)=NC(=O)Nc2c3c(cc4c2CCC4)CCC3)s1` (single isomer, unassigned) [Example 803, (R) or (S)-5-((dimethylamino)methyl)-N′-((1,2,3,5,6,7-hexahydro-5-indacen-4-yl)carbamoyl)thiophene-2-sulfonimidamide]: the IC50 (Table B3) was in the range of 0.2 to 1 µM.

`CN(C)Cc1ccc(S(N)(=O)=NC(=O)Nc2c3c(cc4c2CCC4)CCC3)s1` (single isomer, unassigned) [Example 804, (S) or (R)-5-((dimethvlamino)methyl)-N′-((1,2,3,5,6,7-hexahydro-s-indacen-4-yl)carbamoyl)thiophene-2-sulfonimidamide]: the IC50 (Table B3) was in the range of 5 to 30 µM.

As to `CC(C)n1nc(S(N)(=O)=NC(=O)Nc2c3c(cc4c2C(=O)CC4)CCC3)cc1C(C)(C)O` (single isomer, unassigned) [Example 805, (R) or (S)-5-(2-hydroxypropan-2-yl)-1-isopropyl-N′-((3-oxo-1,2,3,5,6,7-hexahydro-s-indacen-4-yl)carbamoyl)-1H-pyrazole-3-sulfonimidamide], the IC50 (Table B3) was 0.2 to 1 µM.

`CC(C)n1nc(S(N)(=O)=NC(=O)Nc2c3c(cc4c2C(=O)CC4)CCC3)cc1C(C)(C)O` (single isomer, unassigned) [Example 806, (S) or (R)-5-(2-hydroxypropan-2-yl)-1-isopropyl-N′-((3-oxo-1,2,3,5,6,7-hexahydro-5-indacen-4-yl)carbamoyl)-1H-pyrazole-3-sulfonimidamide]: the IC50 (Table B3) was greater than 30 µM.

For the compound `CC(C)(O)c1nc(CO)c(S(N)(=O)=NC(=O)Nc2c3c(cc4c2C(=O)CC4)CCC3)s1` (single isomer, unassigned) [Example 807, (S) or (R)-4-(hydroxymethyl)-2-(2-hydroxypropan-2-yl)-N′-((3-oxo-1,2,3,5,6,7-hexahydro-s-indacen-4-yl)carbamoyl)thiazole-5-sulfonimidamide], the IC50 (Table B3) is 5 to 30 µM.

For `CC(C)(O)c1nc(CO)c(S(N)(=O)=NC(=O)Nc2c3c(cc4c2C(=O)CC4)CCC3)s1` (single isomer, unassigned) [Example 808, (R) or (S)-4-(hydroxymethyl)-2-(2-hydroxypropan-2-yl)-N′-((3-oxo-1,2,3,5,6,7-hexahydro-s-indacen-4-yl)carbamoyl)thiazole-5-sulfonimidamide], the IC50 (Table B3) lay within 1 to 5 µM.

On to `CN(C)CC(C)(C)c1ccc(S(N)(=O)=NC(=O)Nc2c3c(cc4c2CCC4)CCC3)cc1` (single isomer, unassigned) [Example 809, (R) or (S)-4-(1-(dimethylamino)-2-methylpropan-2-yl)-N′-((1,2,3,5,6,7-hexahydro-s-indacen-4-yl)carbamoyl)benzenesulfonimidamide], for which the IC50 (Table B3) was 0.2 to 1 µM.

On to `CN(C)CC(C)(C)c1ccc(S(N)(=O)=NC(=O)Nc2c3c(cc4c2CCC4)CCC3)cc1` (single isomer, unassigned) [Example 810, (S) or (R)-4-(1-(dimethylamino)-2-methylpropan-2-yl)-N′-((1,2,3,5,6,7-hcxahydro-s-indaccn-4-yl)carbamoyl)benzenesulfonimidamide], for which, under “Table B3”, the IC50 was 5 to 30 µM.

Take `CC(C)c1cnc(S(N)(=O)=NC(=O)Nc2c3c(cc4c2CCC4)CCC3)c(F)c1` (single isomer, unassigned) [Example 811, (R) or (S)-3-fluoro-N′-((1,2,3,5,6,7-hexahydro-s-indacen-4-yl)carbamoyl)-5-isopropylpyridine-2-sulfonimidamide]: the IC50 (Table B3) lay within 0.2 to 1 µM.

For `CC(C)c1cnc(S(N)(=O)=NC(=O)Nc2c3c(cc4c2CCC4)CCC3)c(F)c1` (single isomer, unassigned) [Example 812, (S) or (R)-3-fluoro-N′-((1,2,3,5,6,7-hexahydro-s-indacen-4-yl)carbamoyl)-5-isopropylpyridine-2-sulfonimidamide], where the note is “Table B3”, the IC50 is 5 to 30 µM.

Consider `CCn1ccc(S(N)(=O)=NC(=O)Nc2c3c(cc4c2CCC4)CCC3)n1` (single isomer, unassigned) [Example 813, (R) or (S)-1-ethyl-N′-((1,2,3,5,6,7-hexahydro-s-indacen-4-yl)carbamoyl)-1H-pyrazole-3-sulfonimidamide], for which, for the setting “Table B3”, the half-maximal inhibitory concentration (IC50) was 0.04 to 0.2 µM.

With `CCn1ccc(S(N)(=O)=NC(=O)Nc2c3c(cc4c2CCC4)CCC3)n1` (single isomer, unassigned) [Example 814, (S) or (R)-1-ethyl-N′-((1,2,3,5,6,7-hexahydro-s-indacen-4-yl)carbamoyl)-1H-pyrazole-3-sulfonimidamide], the IC50 (Table B3) fell in the range of 1 to 5 µM.

With `C[C@](O)(CO)c1ncc(S(N)(=O)=NC(=O)Nc2c3c(cc4c2CC4)CCC3)s1` (single isomer, unassigned) [Example 815, (R) or (S)-2-((S)-1,2-dihydroxypropan-2-yl)-N′-((2,4,5,6-tetrahydro-1H-cyclobuta[f]inden-3-yl)carbamoyl)thiazole-5-sulfonimidamide], the IC50 (Table B3) was 0.008 to 0.04 µM.

For the compound `C[C@](O)(CO)c1ncc(S(N)(=O)=NC(=O)Nc2c3c(cc4c2CC4)CCC3)s1` (single isomer, unassigned) [Example 816, (S) or (R)-2-((S)-1,2-dihydroxypropan-2-yl)-N′-((2,4,5,6-tetrahydro-1H-cyclobuta[f]inden-3-yl)carbamoyl)thiazole-5-sulfonimidamide], the IC50 (Table B3) fell in the range of 0.2 to 1 µM.

For `C[C@@](O)(CO)c1ncc(S(N)(=O)=NC(=O)Nc2c3c(cc4c2CC4)CCC3)s1` (single isomer, unassigned) [Example 817, (R) or (S)-2-((R)-1,2-dihydroxypropan-2-yl)-N′-((2,4,5,6-tetrahydro-1H-cyclobuta[f]inden-3-yl)carbamoyl)thiazole-5-sulfonimidamide], the IC50 (Table B3) is 0.008 to 0.04 µM.

For the compound `C[C@@](O)(CO)c1ncc(S(N)(=O)=NC(=O)Nc2c3c(cc4c2CC4)CCC3)s1` (single isomer, unassigned) [Example 818, (S) or (R)-2-((R)-1,2-dihydroxypropan-2-yl)-N′-((2,4,5,6-tetrahydro-1H-cyclobuta[f]inden-3-yl)carbamoyl)thiazole-5-sulfonimidamide], the IC50 (Table B3) lay within 0.2 to 1 µM.

As for `C[C@@](O)(CO)c1ncc(S(N)(=O)=NC(=O)Nc2c3c(cc4c2C(=O)CC4)CCC3)s1` (single isomer, unassigned) [Example 819, (R) or (S) -2-((R)-1,2-dihydroxypropan-2-yl)-N′-((3-oxo-1,2,3,5,6,7-hexahydro-s-indacen-4-yl)carbamoyl)thiazole-5-sulfonimidamide], the IC50 (Table B3) was 0.2 to 1 µM.

`C[C@@](O)(CO)c1ncc(S(N)(=O)=NC(=O)Nc2c3c(cc4c2C(=O)CC4)CCC3)s1` (single isomer, unassigned) [Example 820, (S) or (R)-2-((R)-1,2-dihydroxypropan-2-yl)-N′-((3-oxo-1,2,3,5,6,7-hexahydro-s-indacen-4-yl)carbamoyl)thiazole-5-sulfonimidamide]: the IC50 (Table B3) was in the range of 5 to 30 µM.

As for `NS(=O)(=NC(=O)Nc1c2c(cc3c1CCC3)CCC2)c1ccc([C@@H]2CCCN2)s1` (single isomer, unassigned) [Example 821, (R) or (S) -N′-((1,2,3,5,6,7-hexahydro-s-indacen-4-yl)carbamoyl)-5-((S)-pyrrolidin-2-yl)thiophene-2-sulfonimidamide], the IC50 (Table B3) is 0.2 to 1 µM.
